Nine compounds from paper PMC6736730 (Biochemistry, 2019) can be followed below.

Test [1] addresses T1, msAPAH (Marinobacter subterrani, UniProt A0A0J7JFD7). Kind of test: Inhibitory activity measurements. In kind it is biochemical.
Test [2] deals with T1, msAPAH. Description: Isothermal titration calorimetry. Conditions: ITC, 25 °C; inhibitor 7 with 5% (v/v) DMSO. The test is classed as binding.
Test [3] has as its target T1, msAPAH. Kind of test: Steady-state kinetics of acetylpolyamine hydrolysis. In kind it is biochemical. Conditions: 25° C, pH 7.75, triplicate; N^8-acetylspermidine value at 0 mM KCl.
Test [4] deals with T1, msAPAH. Description: Hydrolysis of acetyllysine substrates. The test is classed as biochemical. Conditions: acetyllysine (Aly) and MSH2-based peptide substrates; LC-MS assay.

In the case of `NCCCCCCCC(=O)NO` [Inhibitor 5, 8-amino-N-hydroxyoctanamide], the IC50 on msAPAH [1] was determined as 380 µM. Turning to `NCCCCCC(=O)NO` [Inhibitor 4, 6-amino-N-hydroxyhexanamide], half-maximal inhibition on msAPAH [1] (IC50) was put at 410 µM. `NCCCNCCCCCC(=O)NO` [Inhibitor 6, 6-[(3-aminopropyl)amino]-N-hydroxyhexanamide] registered an IC50 at msAPAH [1] of 470 µM. For the same compound, the “dissociation constant / enthalpogram fit (in words)” value on msAPAH [2] is given as “micromolar dissociation constants”. Turning to `CC(=O)NCCCNCCCCNCCCN` [acetylspermine], at msAPAH [3], the Km came to 1300 ± 600 µM. For `NCCCNCCCCCS` [Inhibitor 3, 5-[(3-aminopropyl)amino]pentane-1-thiol], the IC50 at msAPAH [1] amounted to 160 µM. Also, on msAPAH [2], the “dissociation constant / enthalpogram fit (in words)” value is on record as “nanomolar dissociation constant”. As for `CN(C)c1ccc(C(=O)NCCCCCCC(=O)NO)cc1` [Inhibitor 7, reference compound], the “dissociation constant / enthalpogram fit (in words)” value at msAPAH [2] is “could not be fit to binding curves”.

Take `CC(=O)NCCCCN` [acetylputrescine]: the Km at msAPAH [3] turned out to be 44 ± 10 µM. Consider `CC(=O)NCCCC[C@H](N)C(N)=O` [Aly-NH2], for which the “catalytic activity for hydrolysis” value at msAPAH [4] is listed as “No significant catalytic activity”. Turning to `CC(=O)NCCCCCN` [acetylcadaverine], the Km on msAPAH [3] is 800 ± 300 µM.

As usually defined, the IC50 is the concentration that gives 50% inhibition. The low end stands for higher potency, the high end for lower potency. Usually Km stands for the concentration of substrate that gives half-maximal velocity.
